In patent US11524938B2, “Aromatic sulfonamide derivatives” (Bayer Pharma Aktiengesellschaft, priority 2016, dated 2022):
“And” between values parts separate entries of the source, which are not always exact repeats. Equal values may be shown once.

Target: T1, human P2X4 (Homo sapiens, UniProt Q99571)
T1 sequence (Q99571 1-388): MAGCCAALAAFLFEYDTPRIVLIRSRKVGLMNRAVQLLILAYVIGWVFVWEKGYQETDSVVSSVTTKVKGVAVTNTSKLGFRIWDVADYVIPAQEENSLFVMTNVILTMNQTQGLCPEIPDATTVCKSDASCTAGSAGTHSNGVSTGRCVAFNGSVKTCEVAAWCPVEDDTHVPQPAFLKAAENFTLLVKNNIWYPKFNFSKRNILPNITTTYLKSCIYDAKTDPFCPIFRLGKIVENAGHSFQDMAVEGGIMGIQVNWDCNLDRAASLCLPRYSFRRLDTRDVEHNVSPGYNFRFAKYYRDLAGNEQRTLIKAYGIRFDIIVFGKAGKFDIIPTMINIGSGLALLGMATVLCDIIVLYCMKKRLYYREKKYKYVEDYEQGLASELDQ
Assay: Human P2X4 HEK Cell FLIPR Assay
Type: cell-based
Settings: agonist Bz-ATP at EC80; for Emax: HEK293, HEK293 cells, percentage of maximal inhibition, read-out: Human P2X4 HEK Cells (FLIPR Assay) avg Efficacy [%]; for IC50: HEK293 cells, individual values listed where some fall outside detection range
Procedure, shortened: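 HEK293 cells stably expressing human P2X4, Fluo8-AM loaded 30 min at 37° C, then compound 30 min at room temperature (0.5% DMSO, pH 7.4 buffer with 1.8 mM CaCl2). Bz-ATP at its daily-determined EC80 added; calcium fluorescence read over 120 sec; IC50 from peak RFU normalized to agonist control, triplicates.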

Compound	Emax [%]	IC50
NS(=O)(=O)c1cc(NC(=O)Cc2ccccc2Cl)ccc1-n1cc(CNCC(F)F)cn1 [Example 260, 2-(2-Chlorophenyl)-N-[4-(4-{[(2,2-difluoroethyl)amino]methyl}-1H-pyrazol-1-yl)-3-sulfamoylphenyl]acetamide]	100	398 nM
NS(=O)(=O)c1cc(NC(=O)Cc2ccccc2Cl)ccc1-n1ncnc1C1CC1 [Example 37, 2-(2-Chlorophenyl)-N-[4-(5-cyclopropyl-1H-1,2,4-triazol-1-yl)-3-sulfamoyl-phenyl]acetamide]	81	848 nM
N#Cc1cnn(-c2ccc(NC(=O)Cc3ccncc3Cl)cc2S(N)(=O)=O)c1 [Example 218, 2-(3-Chloropyridin-4-yl)-N-[4-(4-cyano-1H-pyrazol*1-yl)-3-sulfamoyl-phenyl]acetamide]	92	957 nM
CCNc1ncc(-c2ccc(NC(=O)Cc3ccccc3Cl)cc2S(N)(=O)=O)cn1 [Example 312, 2-(2-Chlorophenyl)-N-{4-[2-(ethylamino)pyrimidin-5-yl]-3-sulfamoylphenyl}-acetamide]	69	37 nM
Cc1cc(-c2ccc(NC(=O)Cc3ccccc3Cl)cc2S(N)(=O)=O)cnn1 [Example 294, 2-(2-Chlorophenyl)-N-[4-(6-methylpyridazin-4-yl)-3-sulfamoylphenyl]acetamide]	75	174 nM
NS(=O)(=O)c1cc(NC(=O)Cc2cc(F)ccc2Cl)ccc1-c1cnn(C(F)F)c1 [Example 228, 2-(2-Chloro-5-fluorophenyl)-N-{4-[1-(difluoromethyl)-1H-pyrazol-4-yl]-3-sulfamoyl-phenyl}acetamide]	92	37 nM
COc1ncc(-c2ccc(NC(=O)Cc3ccccc3Cl)cc2S(N)(=O)=O)cn1 [Example 285, 2-(2-Chlorophenyl)-N-[4-(2-methoxypyrimidin-5-yl)-3-sulfamoylphenyl]acetamide]	97	246 nM
NS(=O)(=O)c1cc(NC(=O)Cc2ccccc2Cl)ccc1-c1cncc(N2CCCC2)c1 [Example 322, 2-(2-Chlorophenyl)-N-{4-[5-(pyrrolidin-1-yl)pyridin-3-yl]-3-sulfamoylphenyl}acetamide]	81	186 nM
NS(=O)(=O)c1cc(NC(=O)Cc2ccccc2Cl)ccc1-c1ccc(Cl)cn1 [Example 319, 2-(2-Chlorophenyl)-N-[4-(5-chloropyridin-2-yl)-3-sulfamoylphenyl]acetamide]	73	7280 nM
COc1ccc(CC(=O)Nc2ccc(-n3cc(F)cn3)c(S(N)(=O)=O)c2)cc1 [Example 153, N-[4-(4-Fluoro-1H-pyrazol-1-yl)-3-sulfamoylphenyl]-2-(4-methoxyphenyl)acetamide]	74	182 nM
NS(=O)(=O)c1cc(NC(=O)Cc2ccccc2Cl)ccc1-n1cncn1 [Example 16, 2-(2-Chlorophenyl)-N-[3-sulfamoyl-4-(1H-1,2,4-triazol-1-yl)phenyl]acetamide]	89	262 nM
Cc1ccccc1CC(=O)Nc1ccc(-n2cc(C#N)cn2)c(S(N)(=O)=O)c1 [Example 197, N-[4-(4-Cyano-1H-pyrazol-1-yl)-3-sulfamoylphenyl]-2-(2-methylphenyl)acetamide]	87	86 nM
Cc1ccc(CC(=O)Nc2ccc(-n3cc(C#N)cn3)c(S(N)(=O)=O)c2)cc1 [Example 195, N-[4-(4-Cyano-1H-pyrazol-1-yl)-3-sulfamoylphenyl]-2-(4-methylphenyl)acetamide]	68	86 nM
N#Cc1cnn(-c2ccc(NC(=O)Cc3ccc(C(F)F)cc3)cc2S(N)(=O)=O)c1 [Example 219, N-[4-(4-Cyano-1H-pyrazol-1-yl)-3-sulfamoylphenyl]-2-[4-(difluoromethyl)-phenyl]acetamide]	65	250 nM
Cc1ccc(Cl)c(CC(=O)Nc2ccc(-n3cc(C#N)cn3)c(S(N)(=O)=O)c2)c1 [Example 209, 2-(2-Chloro-5-methylphenyl)-N-[4-(4-cyano-1H-pyrazol-1-yl)-3-sulfamoylphenyl]-acetamide]	91	37 nM
COc1ccc(Cl)c(CC(=O)Nc2ccc(-n3cc(C(F)(F)F)cn3)c(S(N)(=O)=O)c2)c1 [Example 138, 2-(2-Chloro-5-methoxyphenyl)-N-{3-sulfamoyl-4-[4-(trifluoromethyl)-1H-pyrazol-1-yl]phenyl}acetamide]	100	238 nM
NS(=O)(=O)c1cc(NC(=O)Cc2ccccc2Cl)ccc1-n1cnc2ccccc21 [Example 32, N-[4-(1H-Benzimidazol-1-yl)-3-sulfamoylphenyl]-2-(2-chlorophenyl)acetamide]	93	139 nM
NS(=O)(=O)c1cc(NC(=O)Cc2ccccc2F)ccc1-n1cc(F)cn1 [Example 48, 2-(2-Fluorophenyl)-N-[4-(4-fluoro-1H-pyrazol-1-yl)-3-sulfamoylphenyl]acetamide]	82	297 nM
Cc1cccc(CC(=O)Nc2ccc(-n3cc(Cl)cn3)c(S(N)(=O)=O)c2)c1 [Example 174, N-[4-(4-Chloro-1H-pyrazol-1-yl)-3-sulfamoylphenyl]-2-(3-methylphenyl)acetamide]	79	45 nM
NS(=O)(=O)c1cc(NC(=O)Cc2c(F)ccc(F)c2Cl)ccc1-n1cc(Cl)cn1 [Example 96, 2-(2-Chloro-3,6-difluorophenyl)-N-[4-(4-chloro-1H-pyrazol-1-yl)-3-sulfamoylphenyl]-acetamide]	83	233 nM

Second part, the compound after the results:

Emax [%]	IC50	Compound
40	> 25000 nM	N#Cc1cn(-c2ccc(NC(=O)Cc3ccccc3Cl)cc2S(N)(=O)=O)nc1O [Example 500, 2-(2-Chlorophenyl)-N-[4-(4-cyano-3-hydroxy-1H-pyrazol-1-yl)-3-sulfamoylphenyl]acetamide]
83	2060 nM	NS(=O)(=O)c1c(-c2cnn(C(F)F)c2)ccc(NC(=O)Cc2ccccc2Cl)c1C(F)(F)F [Example 489, 2-(2-Chlorophenyl)-N-{4-[1-(difluoromethyl)-1H-pyrazol-4-yl]-3-sulfamoyl-2-(trifluoromethyl)phenyl}acetamide]
75	18 nM	NS(=O)(=O)c1cc(NC(=O)Cc2ccccc2Cl)ccc1-c1cc(C2CC2)on1 [Example 438, 2-(2-Chlorophenyl)-N-[4-(5-cyclopropyl-1,2-oxazol-3-yl)-3-sulfamoylphenyl]acetamide]
74	50 nM	Cc1csc(-c2ccc(NC(=O)Cc3ccccc3Cl)cc2S(N)(=O)=O)n1 [Example 425, 2-(2-Chlorophenyl)-N-[4-(4-methyl-1,3-thiazol-2-yl)-3-sulfamoylphenyl]acetamide]
79	145 nM	NS(=O)(=O)c1cc(NC(=O)Cc2ccccc2F)ccc1-n1nc2cc(F)cc(F)c2n1 [Example 479, N-[4-(4,6-Difluoro-2H-benzotriazol-2-yl)-3-sulfamoylphenyl]-2-(2-fluorophenyl)acetamide]
92	26 nM	NS(=O)(=O)c1cc(NC(=O)Cc2ccc(Cl)cc2Cl)ccc1-c1ccc(Cl)nc1 [Example 465, N-[4-(6-Chloropyridin-3-yl)-3-sulfamoylphenyl]-2-(2,4-dichlorophenyl)acetamide]
26	> 25000 nM	NS(=O)(=O)c1cc(NC(=O)Cc2cccc(C(F)(F)F)c2Cl)c(C(F)(F)F)cc1-n1cc(C(F)(F)F)cn1 [Example 533, 2-[2-Chloro-3-(trifluoromethyl)phenyl]-N-{5-sulfamoyl-2-(trifluoromethyl)-4-[4-(trifluoromethyl)-1H-pyrazol-1-yl]phenyl}acetamide]
96	63 nM	NS(=O)(=O)c1cc(NC(=O)Cc2ccccc2Cl)ccc1-c1cccc(Cl)c1 [Example 356, 2-(2-Chlorophenyl)-N-(3′-chloro-2-sulfamoylbiphenyl-4-yl)acetamide]
64	9660 nM	NS(=O)(=O)c1cc(NC(=O)Cc2ccccc2Cl)ccc1-n1cnc(-c2cccnc2)n1 [Example 392, 2-(2-Chlorophenyl)-N-{4-[3-(pyridin-3-yl)-1H-1,2,4-triazol-1-yl]-3-sulfamoylphenyl}acetamide]
20	> 25000 nM	NS(=O)(=O)c1cc(NC(=O)Cc2ccc(C(F)(F)F)cc2Cl)ccc1-n1ncc(C(F)(F)F)n1 [Example 414, 2-[2-Chloro-4-(trifluoromethyl)phenyl]-N-{3-sulfamoyl-4-[4-(trifluoromethyl)-2H-1,2,3-triazol-2-yl]phenyl}acetamide]
50	17800 nM and > 25000 nM	NS(=O)(=O)c1cc(NC(=O)Cc2ccccc2Cl)ccc1-c1nc(C(F)(F)F)cs1 [Example 434, 2-(2-Chlorophenyl)-N-{3-sulfamoyl-4-[4-(trifluoromethyl)-1,3-thiazol-2-yl]phenyl}acetamide]
97	54 nM	CN(C(=O)c1cnn(-c2ccc(NC(=O)Cc3ccccc3Cl)cc2S(N)(=O)=O)c1)C1CC1 [Example 497, 1-(4-{[(2-Chlorophenyl)acetyl]amino}-2-sulfamoylphenyl)-N-cyclopropyl-N-methyl-1H-pyrazole-4-carboxamide]
